In brackets after ≈: the same amount, converted by molar mass. Structures can show the parent of a compound that is named as a salt. Where two headings read alike, the source gives them in different places.
Assays:
Type in all cases: physicochemical
[1] = Hygroscopicity (descriptive)
[2] = Equilibration in solvents and aqueous media, solid form by XRPD
Aqueous solubility = conditions: water
[3] = Solubility in organic solvents; conditions: for solubility: organic solvent or mixture
Intrinsic dissolution = assay: Intrinsic dissolution
[4] = Sorption-desorption isotherms, VTI humidity balance; conditions: for Sorption: 25° C., first sorption cycle; for Desorption: in % (unit assumed)
Description: Sorption-desorption isotherms were recorded by a VTI humidity balance. The salts of (N-hydroxy-3-[4-[[[2-(2-methyl-1H-indol-3-yl)ethyl]amino]methyl]phenyl]-2E-2-propenamide were first subjected to a drying step (25° C., r.h. below 2%, 2 hours) and then to a sorption-desorption-sorption sequence, with each RH % step retained for 3 hours. The free base was kept below 2% r.h. for several hours, and thus was completely dehydrated after the drying step. Only the data of the first sorption cycle are given in the table, since, in all cases, the two sorption cycles were very similar.

[5] = Hydration/dehydration of free base forms on storage or under vacuum; conditions: for form change upon storage: storage at ambient conditions

Cc1[nH]c2ccccc2c1CCNCc1ccc(/C=C/C(=O)NO)cc1 (racemic) [Form A of the DL-lactate salt, N-hydroxy-3-[4-[[[2-(2-methyl-1H-indol-3-yl)ethyl]amino]methyl]phenyl]-2E-2-propenamide]
hygroscopicity [1]: slightly hygroscopic | form observed on equilibration ([2]; at 0° C. and 10° C. and in acetone/water mixture): observed along with form HA | relative stability of the form ([2]; in water and in most organic solvents): more stable than the other forms of the DL-lactate salt | form after equilibration at pH 1 and 2 [2]: the chloride salt is formed | form conversion under most circumstances [2]: does not convert into any other form

Cc1[nH]c2ccccc2c1CCNCc1ccc(/C=C/C(=O)NO)cc1 (racemic) [Form HA of the DL-lactate salt, N-hydroxy-3-[4-[[[2-(2-methyl-1H-indol-3-yl)ethyl]amino]methyl]phenyl]-2E-2-propenamide]
hygroscopicity [1]: slightly hygroscopic | XRPD form after equilibration ([2]; Methanol): converts to form SA | form after equilibration at pH 1 and 2 [2]: the chloride salt is formed | form conversion under most circumstances [2]: slowly converts into form A

Cc1[nH]c2ccccc2c1CCNCc1ccc(/C=C/C(=O)NO)cc1 [Form A of the L-tartarate salt, N-hydroxy-3-[4-[[[2-(2-methyl-1H-indol-3-yl)ethyl]amino]methyl]phenyl]-2E-2-propenamide]
aqueous solubility (Aqueous solubility): 3500 µg/mL | solubility in acetone, ethyl acetate and other common organic solvents ([3]; acetone, ethyl acetate and other common organic solvents): good solubility | solubility in alcohols ([3]; alcohols): limited solubility | intrinsic dissolution (Intrinsic dissolution): good | hygroscopicity [1]: slightly hygroscopic | moisture at 85% r.h. ([4]; 85% r.h.): less than 0.5% | Sorption ([4]; Sample RH % 1.5): 0% | Sorption ([4]; Sample RH % 5): 0.04% | Desorption ([4]; Sample RH % 5): −0.09 | Sorption ([4]; Sample RH % 25): 0.11% | Desorption ([4]; Sample RH % 25): 0.03 | Sorption ([4]; Sample RH % 50): 0.2% | Desorption ([4]; Sample RH % 50): 0.16 | Sorption ([4]; Sample RH % 75): 0.31% | Desorption ([4]; Sample RH % 75): 0.36 | Sorption ([4]; Sample RH % 85): 0.35% | Desorption ([4]; Sample RH % 85): 0.42 | Sorption ([4]; Sample RH % 95): 0.49% | Desorption ([4]; Sample RH % 95): 0.49 | XRPD form after equilibration ([2]; 0.1 N HCl): chloride salt | XRPD form after equilibration ([2]; 2-Propanol): No change | XRPD form after equilibration ([2]; Acetone): Form C of the tartarate salt is obtained | XRPD form after equilibration ([2]; Acetone, listed as L-Tartarate): No change | XRPD form after equilibration ([2]; Ethanol): No change | XRPD form after equilibration ([2]; Ethyl Acetate): No change | XRPD form after equilibration ([2]; Methanol): converts to form C | XRPD form after equilibration ([2]; Methanol, listed as L-Tartarate): Changed to new | XRPD form after equilibration ([2]; pH = 6.8 buffer (phosphate)): free base | XRPD form after equilibration ([2]; water): No change

Cc1[nH]c2ccccc2c1CCNCc1ccc(/C=C/C(=O)NO)cc1 [Form A of the acetate salt, N-hydroxy-3-[4-[[[2-(2-methyl-1H-indol-3-yl)ethyl]amino]methyl]phenyl]-2E-2-propenamide]
aqueous solubility (Aqueous solubility): ~2000 µg/mL

Cc1[nH]c2ccccc2c1CCNCc1ccc(/C=C/C(=O)NO)cc1 [Form A of the benzoate salt, N-hydroxy-3-[4-[[[2-(2-methyl-1H-indol-3-yl)ethyl]amino]methyl]phenyl]-2E-2-propenamide]
aqueous solubility (Aqueous solubility): ~700 µg/mL

Cc1[nH]c2ccccc2c1CCNCc1ccc(/C=C/C(=O)NO)cc1 [Form A of the hemi-fumarate salt, N-hydroxy-3-[4-[[[2-(2-methyl-1H-indol-3-yl)ethyl]amino]methyl]phenyl]-2E-2-propenamide]
aqueous solubility (Aqueous solubility): ~400 µg/mL

Cc1[nH]c2ccccc2c1CCNCc1ccc(/C=C/C(=O)NO)cc1 [Form A of the hemi-malate salt, N-hydroxy-3-[4-[[[2-(2-methyl-1H-indol-3-yl)ethyl]amino]methyl]phenyl]-2E-2-propenamide]
aqueous solubility (Aqueous solubility): ~1400 µg/mL

Cc1[nH]c2ccccc2c1CCNCc1ccc(/C=C/C(=O)NO)cc1 [Form A of the hemi-succinate salt, N-hydroxy-3-[4-[[[2-(2-methyl-1H-indol-3-yl)ethyl]amino]methyl]phenyl]-2E-2-propenamide]
aqueous solubility (Aqueous solubility): ~400 µg/mL

Cc1[nH]c2ccccc2c1CCNCc1ccc(/C=C/C(=O)NO)cc1 [Form A of the phosphate salt, N-hydroxy-3-[4-[[[2-(2-methyl-1H-indol-3-yl)ethyl]amino]methyl]phenyl]-2E-2-propenamide]
aqueous solubility (Aqueous solubility): ~6000 µg/mL

Cc1[nH]c2ccccc2c1CCNCc1ccc(/C=C/C(=O)NO)cc1 [Form A of the propionate salt, N-hydroxy-3-[4-[[[2-(2-methyl-1H-indol-3-yl)ethyl]amino]methyl]phenyl]-2E-2-propenamide]
aqueous solubility (Aqueous solubility): ~4000 µg/mL

Cc1[nH]c2ccccc2c1CCNCc1ccc(/C=C/C(=O)NO)cc1 [Form A of the sulfate salt, N-hydroxy-3-[4-[[[2-(2-methyl-1H-indol-3-yl)ethyl]amino]methyl]phenyl]-2E-2-propenamide]
hygroscopicity [1]: visibly hygroscopic

Cc1[nH]c2ccccc2c1CCNCc1ccc(/C=C/C(=O)NO)cc1 [Form B of the tartarate salt, N-hydroxy-3-[4-[[[2-(2-methyl-1H-indol-3-yl)ethyl]amino]methyl]phenyl]-2E-2-propenamide]
hygroscopicity [1]: hygroscopic

Cc1[nH]c2ccccc2c1CCNCc1ccc(/C=C/C(=O)NO)cc1 [Free Base, N-hydroxy-3-[4-[[[2-(2-methyl-1H-indol-3-yl)ethyl]amino]methyl]phenyl]-2E-2-propenamide]
Sorption ([4]; Sample RH % 1.5): 0% | Sorption ([4]; Sample RH % 5): 0.06% | Desorption ([4]; Sample RH % 5): 4.11 | Sorption ([4]; Sample RH % 25): 3.39% | Desorption ([4]; Sample RH % 25): 5.11 | Sorption ([4]; Sample RH % 50): 5.17% | Desorption ([4]; Sample RH % 50): 5.21 | Sorption ([4]; Sample RH % 75): 5.22% | Desorption ([4]; Sample RH % 75): 5.31 | Sorption ([4]; Sample RH % 85): 5.24% | Desorption ([4]; Sample RH % 85): 5.33 | Sorption ([4]; Sample RH % 95): 5.37% | Desorption ([4]; Sample RH % 95): 5.37 | XRPD form after equilibration ([2]; 2-Propanol): No change | XRPD form after equilibration ([2]; Acetone): No change | XRPD form after equilibration ([2]; Ethanol): Changed to new | XRPD form after equilibration ([2]; Ethyl Acetate): No change | XRPD form after equilibration ([2]; Methanol): Changed to new | XRPD form after equilibration ([2]; pH = 6.8 buffer (phosphate)): No change | XRPD form after equilibration ([2]; water): No change

Cc1[nH]c2ccccc2c1CCNCc1ccc(/C=C/C(=O)NO)cc1 [free base form A, N-hydroxy-3-[4-[[[2-(2-methyl-1H-indol-3-yl)ethyl]amino]methyl]phenyl]-2E-2-propenamide]
solubility in hot ethanol ([3]; listed as Form A): soluble

Cc1[nH]c2ccccc2c1CCNCc1ccc(/C=C/C(=O)NO)cc1 [free base form B, N-hydroxy-3-[4-[[[2-(2-methyl-1H-indol-3-yl)ethyl]amino]methyl]phenyl]-2E-2-propenamide]
solubility in hot ethanol ([3]; listed as form B): insoluble

Cc1[nH]c2ccccc2c1CCNCc1ccc(/C=C/C(=O)NO)cc1 [free base form C, N-hydroxy-3-[4-[[[2-(2-methyl-1H-indol-3-yl)ethyl]amino]methyl]phenyl]-2E-2-propenamide]
solubility in hot ethanol-water mixture ([3]; hot ethanol-water mixture): soluble | form change upon storage ([5]; listed as Form C): spontaneously rehydrate to form HA | form change upon storage ([5]; listed as form C): rehydrate back to form HA

Cc1[nH]c2ccccc2c1CCNCc1ccc(/C=C/C(=O)NO)cc1 [free base form HA, N-hydroxy-3-[4-[[[2-(2-methyl-1H-indol-3-yl)ethyl]amino]methyl]phenyl]-2E-2-propenamide]
aqueous solubility (Aqueous solubility): approximately 0.004 mg/mL | solubility ([3]; ethanol, read-out: solubility in ethanol): ~1500 µg/mL (≈ 4.29 mM) | solubility ([3]; ethyl acetate, read-out: solubility in ethyl acetate): ~5600 µg/mL (≈ 16 mM) | solubility ([3]; methanol, read-out: solubility in methanol): ~2300 µg/mL (≈ 6.58 mM) | hygroscopicity [1]: slightly hygroscopic | form change under vacuum ([5]; under vacuum even at ambient temperature): completely dehydrates and converts to form C

Cc1[nH]c2ccccc2c1CCNCc1ccc(/C=C/C(=O)NO)cc1 [white crystalline solid, N-hydroxy-3-[4-[[[2-(2-methyl-1H-indol-3-yl)ethyl]amino]methyl]phenyl]-2E-2-propenamide]
hygroscopicity [1]: non-hygroscopic

Cc1[nH]c2ccccc2c1CCNCc1ccc(/C=C/C(=O)NO)cc1 [yellow powder, N-hydroxy-3-[4-[[[2-(2-methyl-1H-indol-3-yl)ethyl]amino]methyl]phenyl]-2E-2-propenamide]
hygroscopicity [1]: very highly hygroscopic

Reference: patent publication US7989494B2, “Polymorphs of N-hydroxy-3-[4-[[[2-(2-methyl-1H-indol-3-yl)ethyl]amino]methyl]phenyl]-2E-2-propenamide” (Novartis AG, priority 2006, dated 2011)
